# Results taken from patent US20250195524A1, “PYRIMIDO-PYRIDAZINONE COMPOUND AS TOLL-LIKE RECEPTOR AGONIST” (SHANGHAI VISONPHARMA CO., LTD., priority 2022, published 2025).
# Target: T1, human TLR8 (Homo sapiens, UniProt Q9NR97)
# T1 construct: host or cells: HEK-Blue hTLR8 (HEK293-derived reporter cells)
# T1 sequence (Q9NR97 27-1041): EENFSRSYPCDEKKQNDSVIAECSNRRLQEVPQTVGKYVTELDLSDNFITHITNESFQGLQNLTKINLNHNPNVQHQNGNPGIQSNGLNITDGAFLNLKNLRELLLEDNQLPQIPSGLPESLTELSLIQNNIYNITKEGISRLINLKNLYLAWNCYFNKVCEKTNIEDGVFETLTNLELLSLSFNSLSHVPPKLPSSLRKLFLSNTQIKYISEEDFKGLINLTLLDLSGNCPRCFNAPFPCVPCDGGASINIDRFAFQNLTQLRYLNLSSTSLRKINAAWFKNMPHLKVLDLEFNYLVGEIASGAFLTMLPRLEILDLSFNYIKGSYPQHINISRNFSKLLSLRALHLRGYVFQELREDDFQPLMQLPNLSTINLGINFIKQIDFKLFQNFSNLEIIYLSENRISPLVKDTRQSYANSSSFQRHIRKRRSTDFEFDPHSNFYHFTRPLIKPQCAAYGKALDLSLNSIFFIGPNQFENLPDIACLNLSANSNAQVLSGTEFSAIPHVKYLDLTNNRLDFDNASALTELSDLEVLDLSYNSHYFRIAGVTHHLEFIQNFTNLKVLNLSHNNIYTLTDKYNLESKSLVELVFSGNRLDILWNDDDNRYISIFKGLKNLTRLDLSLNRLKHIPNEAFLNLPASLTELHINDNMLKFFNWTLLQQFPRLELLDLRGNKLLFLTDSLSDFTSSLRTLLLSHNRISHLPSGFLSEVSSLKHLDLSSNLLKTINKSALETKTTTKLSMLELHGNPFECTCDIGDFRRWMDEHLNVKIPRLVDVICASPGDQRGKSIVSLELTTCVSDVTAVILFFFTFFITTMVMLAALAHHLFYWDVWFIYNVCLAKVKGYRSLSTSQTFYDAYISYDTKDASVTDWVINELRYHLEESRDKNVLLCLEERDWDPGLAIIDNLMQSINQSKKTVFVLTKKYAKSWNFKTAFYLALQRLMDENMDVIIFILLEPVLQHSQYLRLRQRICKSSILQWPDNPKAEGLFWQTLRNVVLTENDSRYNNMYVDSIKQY
# Assay: HEK-Blue hTLR8 SEAP reporter gene agonism assay
# Format: cell-based
# Conditions: HEK-Blue hTLR8 cells, SEAP (Quanti-blue, 650 nm), 16-22 hours incubation
# Procedure: The agonistic activity of the compounds of the present invention on TLR7 or TLR8 was evaluated using HEK-Blue™ cells stably expressing human TLR7 or TLR8. And the agonistic activity was assayed using their ability to induce the SEAP reporter gene under the control of the IFN-β minimal promoter fused to five NF-κB and ap-1 binding sites, specifically as follows:
# HEK-Blue™ hTLR7 (Invivogen, 80,000 cells per well) or HEK-Blue™ hTLR8 (Invivogen, 60,000 cells per well) was added to a 96-well cell culture plate, the compound to be tested is added whereafter, and the final concentration of the compound(s) to be tested in the medium ranged from 0.001 to 36 μM, then incubated for 16-22 hours. SEAP levels in the cell culture medium were detected using HEK-Blue assay reagent Quanti-blue (Invivogen) according to the manufacturer's instructions. Neo2 Multifunctional Enzyme Labeler (Bio-tek) was used to determine the light absorption at 650 nm. GraphPad Prism was utilized to calculate the EC50, which is the half effective concentration of the drug.
row,EC50 [nM],Compound
1,107,"CCCC(C)Nc1nc(N)nc2cnn(Cc3ccc(CN4CCCC4)cc3)c(=O)c12 (centres unmarked) [Compound I-1, 2-amino-4-(pentan-2-ylamino)-6-(4-(pyrrolidin-1-ylmethyl)benzyl)pyrimido[4,5-d]pyridazin-5(6H)-one]"
2,102,"CCCCNc1nc(N)nc2cnn(Cc3ccc(C(=O)N4CCNCC4)cc3)c(=O)c12 [Compound I-2, 2-amino-4-(butylamino)-6-(4-(piperazine-1-carbonyl)benzyl)pyrimido[4,5-d]pyridazin-5(6H)-one]"
3,615,"CCCCNc1nc(N)nc2cnn(Cc3ccc(C(=O)N4CCN(C)CC4)cc3)c(=O)c12 [Compound I-3, 2-amino-4-(butylamino)-6-(4-(4-methylpiperazine-1-carbonyl)benzyl)pyrimido[4,5-d]pyridazin-5(6H)-one]"
4,403,"COCCNc1nc(N)nc2cnn(Cc3ccc(CN4CCCC4)cc3)c(=O)c12 [Compound I-4, 2-amino-4-((2-methoxyethyl)amino)-6-(4-(pyrrolidin-1-ylmethyl)benzyl)pyrimido[4,5-d]pyridazin-5(6H)-one]"
5,149,"CCCCNc1nc(N)nc2cnn(Cc3ccc(CN4CCCC4)cc3)c(=O)c12 [Compound I-5, 2-amino-4-(butylamino)-6-(4-(pyrrolidin-1-ylmethyl)benzyl)pyrimido[4,5-d]pyridazin-5(6H)-one]"
6,153,"CCCCNc1nc(N)nc2cnn(Cc3ccc(CN(C)C)cc3)c(=O)c12 [Compound I-7, 2-amino-4-(butylamino)-6-(4-((dimethylamino)methyl)benzyl)pyrimido[4,5-d]pyridazin-5(6H)-one]"
7,229,"CCCCNc1nc(N)nc2cnn(Cc3ccc4c(c3)CCNC4)c(=O)c12 [Compound I-8, 2-amino-4-(butylamino)-6-((1,2,3,4-tetrahydroisoquinolin-6-yl)methyl)pyrimido[4,5-d]pyridazin-5(6H)-one]"
8,183,"CCCCNc1nc(N)nc2cnn(Cc3ccc(CN4CCNCC4)cc3)c(=O)c12 [Compound I-9, 2-amino-4-(butylamino)-6-(4-(piperazin-1-ylmethyl)benzyl)pyrimido[4,5-d]pyridazin-5(6H)-one]"
9,569,"CCCCNc1nc(N)nc2cnn(Cc3ccc(CNC4CC4)cc3)c(=O)c12 [Compound I-10, 2-amino-4-(butylamino)-6-(4-((cyclopropylamino)methyl)benzyl)pyrimido[4,5-d]pyridazin-5(6H)-one]"
10,267,"CCCCNc1nc(N)nc2cnn(Cc3ccc(CN4CC5CC(C4)N5)cc3)c(=O)c12 [Compound I-11, 6-(4-((3,6-Diazabicyclo[3.1.1]heptan-3-yl)methyl)benzyl)-2-amino-4-(butylamino)pyrimido[4,5-d]pyridazin-5(6H)-one]"
11,185,"CCCCNc1nc(N)nc2cnn(Cc3ccc(CN4CCC5(CNC5)C4)cc3)c(=O)c12 [Compound I-12, 6-(4-((2,6-Diazaspiro[3.4]octan-6-yl)methyl)benzyl)-2-amino-4-(butylamino)pyrimido[4,5-d]pyridazin-5(6H)-one]"
12,549,"CCCCNc1nc(N)nc2cnn(Cc3ccc4c(c3)CCN(C(C)C)C4)c(=O)c12 [Compound I-13, 2-amino-4-(butylamino)-6-((2-isopropyl-1,2,3,4-tetrahydroisoquinolin-6-yl)methyl)pyrimido[4,5-d]pyridazin-5(6H)-one]"
13,365,"CCCCNc1nc(N)nc2cnn(Cc3ccc(CN4CCCC4)cc3OC)c(=O)c12 [Compound I-14, 2-amino-4-(butylamino)-6-(2-methoxy-4-(pyrrolidin-1-ylmethyl)benzyl)pyrimido[4,5-d]pyridazin-5(6H)-one]"
14,326,"CCCCNc1nc(N)nc2cnn(Cc3ccc(CN4CCCC4)cc3F)c(=O)c12 [Compound I-15, 2-amino-4-(butylamino)-6-(2-fluoro-4-(pyrrolidin-1-ylmethyl)benzyl)pyrimido[4,5-d]pyridazin-5(6H)-one]"
15,354,"CCCCNc1nc(N)nc2cnn(Cc3ccc(CN4CCCC4)nc3OC)c(=O)c12 [Compound I-16, 2-amino-4-(butylamino)-6-((2-methoxy-6-(pyrrolidin-1-ylmethyl)pyridin-3-yl)methyl)pyrimido[4,5-d]pyridazin-5(6H)-one]"
16,368,"CCCCNc1nc(N)nc2cnn(Cc3ccc(CN4CCCC4)c(OC)c3)c(=O)c12 [Compound I-17, 2-amino-4-(butylamino)-6-(3-methoxy-4-(pyrrolidin-1-ylmethyl)benzyl)pyrimido[4,5-d]pyridazin-5(6H)-one]"
17,218,"CCCCNc1nc(N)nc2cnn(Cc3ccc(CN4CCCC4)c(F)c3)c(=O)c12 [Compound I-18, 2-amino-4-(butylamino)-6-(3-fluoro-4-(pyrrolidin-1-ylmethyl)benzyl)pyrimido[4,5-d]pyridazin-5(6H)-one]"
18,388,CCCCNc1nc(N)nc2cnn(Cc3ccc(CN(CCC)CCO)cc3)c(=O)c12 [Compound I-21]
19,222,"CCCCNc1nc(N)nc2cnn(Cc3ccc(CN(CCO)CCO)cc3)c(=O)c12 [Compound I-23, 2-amino-6-(4-((bis(2-hydroxyethyl)amino)methyl)benzyl)-4-(butylamino)pyrimido[4,5-d]pyridazin-5(6H)-one]"
20,322,CCC[C@@H](C)Nc1nc(N)nc2cnn(Cc3ccc(CN(CCC)CCO)cc3)c(=O)c12 [Compound I-26]
21,286,"CCC[C@@H](C)Nc1nc(N)nc2cnn(Cc3ccc(CN(CCO)CCO)cc3)c(=O)c12 [Compound I-27, (R)-2-amino-6-(4-((bis(2-hydroxyethyl)amino)methyl)benzyl)-4-(pentan-2-ylamino)pyrimido[4,5-d]pyridazin-5(6H)-one]"
22,101,"CCC[C@@H](C)Nc1nc(N)nc2cnn(Cc3ccc(CN4CC5(COC5)C4)cc3)c(=O)c12 [Compound I-41, (R)-6-(4-((2-oxo-6-azaspiro[3.3]heptan-6-yl)methyl)benzyl)-2-amino-4-(pentan-2-ylamino)pyrimido[4,5-d]pyridazin-5(6H)-one]"
23,74,CCC[C@@H](C)Nc1nc(N)nc2cnn(Cc3ccc(CNCCO)cc3)c(=O)c12 [Compound I-42]
24,233,"CCC[C@@H](C)Nc1nc(N)nc2cnn(Cc3ccc(CN4CC5(COC5)C4)cc3OC)c(=O)c12 [Compound I-43, (R)-6-(4-((2-oxo-6-azaspiro[3.3]heptan-6-yl)methyl)-2-methoxybenzyl)-2-amino-4-(pentan-2-ylamino)pyrimido[4,5-d]pyridazin-5(6H)-one]"
25,112,CCC[C@@H](C)Nc1nc(N)nc2cnn(Cc3ccc(CNCCO)cc3OC)c(=O)c12 [Compound I-44]
26,169,"CCC[C@@H](C)Nc1nc(N)nc2cnn(Cc3ccc(C4CCNCC4)cc3)c(=O)c12 [Compound I-55, (R)-2-amino-4-(pentan-2-ylamino)-6-(4-(piperidin-4-yl)benzyl)pyrimido[4,5-d]pyridazin-5(6H)-one]"
27,70,"CCC[C@@H](C)Nc1nc(N)nc2cnn(Cc3ccc(C(=O)N4CCNCC4)cc3)c(=O)c12 [Compound I-56, (R)-2-amino-4-(pentan-2-ylamino)-6-(4-(piperazine-1-carbonyl)benzyl)pyrimido[4,5-d]pyridazin-5(6H)-one]"
28,73,"CCC[C@@H](CO)Nc1nc(N)nc2cnn(Cc3ccc(C(=O)N4CCNCC4)cc3)c(=O)c12 [Compound I-58, (S)-2-amino-4-((1-hydroxypentan-2-yl)amino)-6-(4-(piperazine-1-carbonyl)benzyl)pyrimido[4,5-d]pyridazin-5(6H)-one]"
29,9,"CCC[C@@H](CO)Nc1nc(N)nc2cnn(Cc3ccc(CN4CCCC4)cc3)c(=O)c12 [Compound I-59, (S)-2-amino-4-((1-hydroxypentan-2-yl)amino)-6-(4-(pyrrolidin-1-ylmethyl)benzyl)pyrimido[4,5-d]pyridazin-5(6H)-one]"
